The target in test [1] is T1, 5-HT2B receptor (Homo sapiens, UniProt P41595).
T1 construct: host or cells: CHO-K1
The test is described as follows: 5-HT2B receptor antagonism, inhibition of 5-HT stimulated IP-1 accumulation (HTRF) in CHO-K1 cells. The format is cell-based. The conditions noted are these: 5-HT (5 nM) stimulated IP-1 accumulation; for inhibition at 0.001 µM: 1 nM compound; for inhibition at 0.01 µM: 10 nM compound; for inhibition at 0.1 µM: 100 nM compound; for inhibition at 1 µM: 1000 nM compound. The procedure: (§1) 5-HT2B receptor antagonism (performed at Eurofins Panlabs Taiwan, Ltd.) was determined in CHO-K1 cells expressing human receptor protein as inhibition of 5-HT (5 nM) stimulated IP-1 accumulation measured by HTRF quantitation. SB 206553 was used as a standard reference compound. The antagonistic response is expressed as % inhibition of the 5-HT induced effect, see Table 2.

Test [2] concerns the target T1, 5-HT2B receptor. The test is described as follows: 5-HT2B receptor binding, ligand displacement assay with 3H-LSD radioligand. The conditions noted are these: human receptor in CHO-K1; for inhibition at 0.001 µM: 1 nM compound; for inhibition at 0.01 µM: 10 nM compound; for inhibition at 0.1 µM: 100 nM compound. The procedure: 5-HT2B receptor binding (performed at Eurofins Panlabs Taiwan, Ltd.) to human receptor protein expressed in CHO-K1 cells was determined in a ligand displacement assay using ^3H-lysergic acid diethylamide (LSD) as radioligand and ketanserine as a standard reference compound, or alternatively*, with ^3H-mesulergine and SB 206553 as reference. Data is presented as % displacement of radioligand at indicated compound concentrations, see Table 1.

Test [3] concerns the target T1, 5-HT2B receptor. The test is described as follows: 5-HT2B receptor agonism, IP-1 accumulation in CHO-K1 cells without prior 5-HT stimulation. The conditions noted are these: % of IP-1 accumulation induced by 5-HT (1 uM); for 5-HT2B receptor agonism (% of positive control) 1 nM: 1 nM compound; for 5-HT2B receptor agonism (% of positive control) 10 nM: 10 nM compound; for 5-HT2B receptor agonism (% of positive control) 100 nM: 100 nM compound; for 5-HT2B receptor agonism (% of positive control) 1000 nM: 1000 nM compound. The format is cell-based. Here is the method: as §1
5-HT2B receptor agonism (performed at Eurofins Panlabs Taiwan, Ltd.) was determined in the same model as described above in Example 50 without prior stimulation with 5-HT. The agonistic response is expressed as % of the IP-1 accumulation induced by 5-HT (1 uM) stimulation, see Table 3.

In test [4] the test system is bleomycin-induced dermal fibrosis. The test is described as follows: Anti-fibrotic effects in bleomycin-induced dermal fibrosis in mice. Type of test: in vivo, female DBA/2 mice. Here is the method:
Skin fibrosis was induced in female DBA/2 mice by subcutaneous injections of bleomycin (2.5 mg/kg) every other day for three or six weeks.
For preventive treatment, mice were challenged with bleomycin for three weeks and treatment by oral gavage was established simultaneously. For therapeutic treatment, fibrosis was first induced by injections of bleomycin for three weeks in the absence of treatment. Thereafter, treatment by oral gavage was initiated, while injections of bleomycin were continued. The outcome was analyzed three or six weeks after the first injection of bleomycin for preventive and therapeutic treatment, respectively. Mice injected with 0.9% NaCl, the vehicle of bleomycin, served as non-fibrotic controls and mice treated with ddH2O (the vehicle for test compound) by oral gavage served as negative controls.
Groups 1-8 of n=8 Female DBA/2 Mice: Preventive dosing 3 weeks in total 1. 0.9% NaCl (injection) and ddH2O (orally) week 1-3. 2. Bleomycin (injection) and ddH2O (orally) week 1-3. 3. Bleomycin (injection) and test compound (10 mg/kg, qd, orally) week 1-3. Therapeutic dosing 6 weeks in total 4. 0.9% NaCl (injection) week 1-6 and ddH2O (orally) week 4-6. 5. Bleomycin (injection) week 1-3, 0.9% NaCl (injection) week 4-6, and ddH2O (orally) week 4-6. 6. Bleomycin (injection) week 1-6 and ddH2O (orally) week 4-6. 7. Bleomycin (injection) week 1-6 and test compound (1 mg/kg, qd, orally) week 4-6. 8. Bleomycin (injection) week 1-6 and test compound (10 mg/kg, qd, orally) week 4-6.
Defined areas of the skin of the upper back were excised, subsequently fixed in 4% formalin for 6 h and embedded in paraffin. Skin sections were cut and stained with hematoxylin/eosin. The dermal thickness (measured as distance between the epidermal-dermal border to the dermal-subcutaneous border in arbitrary units) was quantified in 4 different sections from different sites with 2 measurements per section. The analysis was performed in a blinded manner.
Myofibroblasts are characterized by the expression of α-smooth muscle actin (αSMA). Fibroblasts positive for αSMA were detected in paraffin-embedded slides from the upper back by incubation with monoclonal anti-αSMA antibodies (clone 1A4, Sigma-Aldrich, Steinheim, Germany). The expression was visualized with horseradish peroxidase labeled secondary antibodies and 3,3-diaminobenzidine tetrahydrochloride (DAB) (Sigma-Aldrich). Monoclonal mouse IgG antibodies (Calbiochem, San Diego, Calif., USA) were used for controls. The analysis was performed by a blinded reviewer evaluating the myofibroblasts in four sections per sample.
The amount of collagen protein (ug/mL) in skin samples was determined via hydroxyproline assay. After digestion of full skin thickness punch biopsies (Ø 3 mm) derived from the upper back in 6 M HCl for three hours at 120° C., the pH of the samples was adjusted to 6 with 6 M NaOH. Afterwards, 0.06 M chloramine T was added to each sample and incubated for 20 m at room temperature. Next, 3.15 M perchloric acid and 20% p-dimethylaminobenzaldehyde were added and samples were incubated for additional 20 min at 60° C. The absorbance was determined at 557 nm with a Spectra MAX 190 microplate spectrophotometer using a standard curve generated with purified type I collagen (Sigma-Aldrich).
All data are presented as group mean values (±SEM), and differences between the groups were tested for their statistical significance by Mann-Whitney U non-parametric test for non-related samples. P-values less than 0.05 were considered significant.

Setting [5] is: Preventive dosing, Group 3: 10 mg/kg qd orally week 1-3, mean (SEM), p < 0.001 vs group 2.
Setting [6] is: Therapeutic dosing, Group 7: 1 mg/kg qd orally week 4-6, mean (SEM).
The mark [7] stands for this setting: Therapeutic dosing, Group 8: 10 mg/kg qd orally week 4-6, mean (SEM).
[8] abbreviates: preventive and therapeutic treatment, compared to vehicle-treated, bleomycin-challenged mice.

Each structure is given as a SMILES string. Where a name gives a salt, the structure may show the parent alone. Marks after values point to notes of the source that are not given here.

T1 sequence (P41595 whole entry): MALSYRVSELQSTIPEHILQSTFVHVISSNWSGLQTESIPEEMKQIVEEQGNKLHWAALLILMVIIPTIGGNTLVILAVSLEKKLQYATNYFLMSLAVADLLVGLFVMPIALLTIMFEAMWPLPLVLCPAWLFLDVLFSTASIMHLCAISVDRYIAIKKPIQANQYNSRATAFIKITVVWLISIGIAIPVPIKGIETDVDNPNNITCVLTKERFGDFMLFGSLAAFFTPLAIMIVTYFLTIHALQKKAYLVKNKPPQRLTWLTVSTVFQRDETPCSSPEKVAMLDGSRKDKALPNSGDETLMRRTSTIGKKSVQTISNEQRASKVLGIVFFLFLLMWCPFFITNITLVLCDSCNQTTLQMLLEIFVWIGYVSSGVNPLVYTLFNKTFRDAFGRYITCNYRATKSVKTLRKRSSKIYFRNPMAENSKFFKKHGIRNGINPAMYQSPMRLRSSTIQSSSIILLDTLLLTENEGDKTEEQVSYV

Turning to `CC1CN(C(=N)N)c2ccc3cc(F)ccc3c21.Cl` (centres unmarked) [Example 1, 7-Fluoro-1-methyl-1,2-dihydro-3H-benzo[e]indole-3-carboximidamide hydrochloride], in test [1], the inhibition at 0.001 µM turned out to be 2%, the inhibition at 0.01 µM was 14%, the inhibition at 0.1 µM was 80% and the inhibition at 1 µM was determined as 97%. Also, in test [2], the inhibition at 0.001 µM came to 9%, the inhibition at 0.01 µM came to 49% and the inhibition at 0.1 µM came to 88%. Besides, in test [3], the “5-HT2B receptor agonism (% of positive control) 1 nM” value was −1%, the “5-HT2B receptor agonism (% of positive control) 10 nM” value is reported as 2%, the “5-HT2B receptor agonism (% of positive control) 100 nM” value amounted to 7% and the “5-HT2B receptor agonism (% of positive control) 1000 nM” value came to 0%.

In the case of `CC1CN(C(=N)N)c2ccc3c(Br)cccc3c21.Cl` (centres unmarked) [Example 2, 6-Bromo-1-methyl-1,2-dihydro-3H-benzo[e]indole-3-carboximidamide hydrochloride], in test [1], the inhibition at 0.001 µM was determined as 56%, the inhibition at 0.01 µM is 91%, the inhibition at 0.1 µM stood at 95% and the inhibition at 1 µM turned out to be 96%. Further, in test [2], the inhibition at 0.001 µM was determined as 72%, the inhibition at 0.01 µM came out at 96% and the inhibition at 0.1 µM is 98%. In addition, in test [3], the “5-HT2B receptor agonism (% of positive control) 1 nM” value was −3%, the “5-HT2B receptor agonism (% of positive control) 10 nM” value is on record as −5%, the “5-HT2B receptor agonism (% of positive control) 100 nM” value is −3% and the “5-HT2B receptor agonism (% of positive control) 1000 nM” value is given as −4%.

On to `CC1CN(C(=N)N)c2ccc3ccccc3c21.Cl` (centres unmarked) [Example 3, 1-Methyl-1,2-dihydro-3H-benzo[e]indole-3-carboximidamide hydrochloride], for which, in test [1], the inhibition at 0.001 µM amounted to 2%, the inhibition at 0.01 µM turned out to be 50% and the inhibition at 0.1 µM came out at 100%. In test [4] (setting [5]), the “Dermal thickness (arbitrary units)” value is listed as 3.52 (0.05) *** arbitrary units, the “Hydroxyproline (ug/mL)” value is listed as 3.44 (0.11) *** ug/mL and the Myofibroblast counts was 1.31 (0.06) ***. In test [4] (setting [6]), the “Dermal thickness (arbitrary units)” value is 3.96 (0.06) ^++### arbitrary units, the “Hydroxyproline (ug/mL)” value is reported as 3.85 (0.12) ^## ug/mL and the Myofibroblast counts is reported as 1.72 (0.07) ^+###. In addition, in test [4] (setting [7]), the “Dermal thickness (arbitrary units)” value is given as 3.56 (0.04) ^+++### arbitrary units, the “Hydroxyproline (ug/mL)” value is 3.58 (0.09) ^++### ug/mL and the Myofibroblast counts is reported as 1.41 (0.07) ^++###. For the same compound, in test [4] (setting [8]), the Myofibroblast counts entry was “significantly reduced”, the hydroxyproline content entry is on record as “significantly reduced” and the hypodermal thickening entry is given as “significantly reduced”. Besides, in test [4] (therapeutic regimen), the “antifibrotic effect, 10 mg/kg/qd compared to 1 mg/kg/qd” value was “more potent antifibrotic effect”. In test [2], the inhibition at 0.01 µM was 63% and the inhibition at 0.1 µM amounted to 90%. In addition, in test [3], the “5-HT2B receptor agonism (% of positive control) 1 nM” value is on record as −3%, the “5-HT2B receptor agonism (% of positive control) 10 nM” value is on record as 0% and the “5-HT2B receptor agonism (% of positive control) 100 nM” value was −3%.

On to `CC1CN(C(=N)N)c2ccc3c(Cl)cccc3c21.Cl` (centres unmarked) [Example 11, 6-Chloro-1-methyl-1,2-dihydro-3H-benzo[e]indole-3-carboximidamide hydrochloride], for which, in test [1], the inhibition at 0.001 µM was 53%, the inhibition at 0.01 µM was found to be 89%, the inhibition at 0.1 µM amounted to 99% and the inhibition at 1 µM amounted to 96%. For the same compound, in test [2], the inhibition at 0.001 µM is 63%, the inhibition at 0.01 µM stood at 97% and the inhibition at 0.1 µM was 103%. Moreover, in test [3], the “5-HT2B receptor agonism (% of positive control) 1 nM” value was 1%, the “5-HT2B receptor agonism (% of positive control) 10 nM” value is 5%, the “5-HT2B receptor agonism (% of positive control) 100 nM” value was −2% and the “5-HT2B receptor agonism (% of positive control) 1000 nM” value was determined as 1%.

For `CC1CN(C(=N)N)c2ccc3c(F)cccc3c21` (centres unmarked) [Example 33, 6-Fluoro-1-methyl-1,2-dihydro-3H-benzo[e]indole-3-carboximidamide 2,2,2-trifluoroacetic acid salt], in test [1], the inhibition at 0.001 µM was 29%, the inhibition at 0.01 µM is 81%, the inhibition at 0.1 µM is 99% and the inhibition at 1 µM is 100%. In test [2], the inhibition at 0.001 µM came out at 28%, the inhibition at 0.01 µM was 82% and the inhibition at 0.1 µM came out at 101%. For the same compound, in test [3], the “5-HT2B receptor agonism (% of positive control) 1 nM” value was −1%, the “5-HT2B receptor agonism (% of positive control) 10 nM” value was 4%, the “5-HT2B receptor agonism (% of positive control) 100 nM” value came to 26% and the “5-HT2B receptor agonism (% of positive control) 1000 nM” value is −1%.
